Experiments:
[1] = test system: IL-1β; assay: Inhibition of IL-1β secretion in LPS stimulated peripheral blood mononuclear cells; assay type: cell-based; details: PBMC; LPS stimulated human peripheral blood mononuclear cells, 18 hours, ELISA; read-out: The median inhibition concentration (IC50, nM) of IL-1β
Method in brief: (§1)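 Human PBMCs (5×10^5 cells/ml, RPMI 1640 + 2% FCS) pre-treated with compound 30 min, then stimulated with LPS ([…]) for 18 h. Secreted IL-1β and TNF-α quantified by ELISA; IC50 values calculated.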

[2] = test system: TNF-α; assay: Inhibition of TNF-α secretion in LPS stimulated peripheral blood mononuclear cells; assay type: cell-based; details: PBMC; LPS stimulated human peripheral blood mononuclear cells, 18 hours, ELISA; read-out: The median inhibition concentration (IC50, nM) of TNF-α
Method in brief: as §1

[3] = test system: LPS induced TNF-α response; assay: In vivo screening model of LPS induced TNF-α response in mice; details: Mus musculus, mice (C3H/HeN), dosed 1 hour prior to LPS, plasma TNF-α 80-90 minutes after LPS, vs LPS treated control group, read-out: In vivo inhibition of LPS induced TNF-α production (in %)
Method: In Vivo Screening Model of LPS Induced TNF-α Response in Mice
To study the effect of compounds of the present invention in vivo, an in vivo screening model of LPS induced TNF-α response in mice was set up as follows: Groups of 6 mice (C3H/HeN, female, about 8 weeks (20 g), Bomholtgaard) were dosed with test compounds in suspension vehicle 1 hour prior to LPS administration (LPS from E. coli 055:B5, L-4005, Sigma). At time 0, the mice were dosed ip with 1.0 mg LPS/kg. After anesthetization with Hypnorm/Dormicum, the mice were bled from the periorbital venous plexus 80-90 minutes after LPS administration. The blood samples were sampled in EDTA stabilised tubes and centrifuged at 4000 rpm for 10 minutes at 4° C. The plasma level of TNF-α was analysed by ELISA. Compound 156 of WO 98/32730 was used as reference compound. The plasma level of TNF-α was determined using a sandwich ELISA. Microtiter plates were coated with a monoclonal antibody against mouse TNF-α, washed and blocked with a casein buffer. Samples of mouse TNF-α recombinant standards were added to the wells of the microtiter plates and incubated. All standards were tested in triplicate, all plasma samples in single. After sample and standard incubation, the plates were washed and incubated with biotinylated polyclonal secondary antibody against mouse TNF-α and washed. Enzyme conjugate was added to all wells and incubated. Substrate was added and the enzyme/substrate reaction stopped after 15 minutes at room temperature with 1M H2SO4. The colour development (OD) was measured at 450 nm on an ELISA reader and the background OD at 620 nm was subtracted. […] The results of the tested compounds are indicated as a percentage inhibition compared to an LPS treated control group. Compounds were tested at 10 mg/kg. The Mann-Whitney test was used to compare drug treated groups to the LPS treated control group (p<0.05).

| SMILES | IC50 [1] | IC50 [2] | inhibition at 10 mg/kg [3] |
| --- | --- | --- | --- |
| CCC(CO)NC(=O)c1ccc(C)c(C(=O)c2ccc(Nc3ccc(F)cc3F)cc2Cl)c1 (stereo not drawn) [Compound 153, 3-[2-Chloro-4-(2,4-difluoro-phenylamino)-benzoyl]-N-(1-hydroxymethyl-propyl)-4-methyl-benzamide] | 8.9 nM | 1.6 nM | 86% |
| Cc1ccc(C(=O)NCCCO)cc1C(=O)c1ccc(Nc2ccc(F)cc2F)cc1Cl [Compound 155, 3-[2-Chloro-4-(2,4-difluoro-phenylamino)-benzoyl]-N-(3-hydroxy-propyl)-4-methyl-benzamide] | 0.6 nM | 0.2 nM | 91% |
| Cc1ccc(C(=O)NC(C)(C)CO)cc1C(=O)c1ccc(Nc2ccc(F)cc2F)cc1Cl [Compound 156, 3-[2-Chloro-4-(2,4-difluoro-phenylamino)-benzoyl]-N-(2-hydroxy-1,1-dimethyl-ethyl)-4-methyl-benzamide] | 4.5 nM | 0.9 nM | 73% |
| Cc1ccc(C(=O)NC(C)(CO)CO)cc1C(=O)c1ccc(Nc2ccc(F)cc2F)cc1Cl [Compound 157, 3-[2-Chloro-4-(2,4-difluoro-phenylamino)-benzoyl]-N-(2-hydroxy-1-hydroxymethyl-1-methyl-ethyl)-4-methyl-benzamide] | 2.2 nM | 0.9 nM | 83% |
| Cc1ccc(C(=O)NCCF)cc1C(=O)c1ccc(Nc2ccc(F)cc2F)cc1 [Compound 163, 3-[4-(2,4-Difluoro-phenylamino)-benzoyl]-N-(2-fluoro-ethyl)-4-methyl-benzamide] | 2.5 nM | 2.5 nM | 66% |
| Cc1ccc(C(=O)NC(C)C)cc1C(=O)c1ccc(Nc2ccc(F)cc2F)cc1Cl [Compound 164, 3-[2-Chloro-4-(2,4-difluoro-phenylamino)-benzoyl]-N-isopropyl-4-methyl-benzamide] | 1.3 nM | 2 nM | 76% |
| Cc1ccc(C(=O)NCC(F)F)cc1C(=O)c1ccc(Nc2ccc(F)cc2F)cc1Cl [Compound 166] | 0.5 nM | 0.4 nM | 83% |
| C=CCNC(=O)c1ccc(C)c(C(=O)c2ccc(Nc3ccc(F)cc3F)cc2Cl)c1 [Compound 170, N-Allyl-3-[2-chloro-4-(2,4-difluoro-phenylamino)-benzoyl]-4-methyl-benzamide] | 3.2 nM | 2.5 nM | 87% |
| COc1ccc(C(=O)NCCO)cc1C(=O)c1ccc(Nc2c(F)cccc2F)cc1Cl [Compound 173, 3-[2-Chloro-4-(2,6-difluoro-phenylamino)-benzoyl]-N-(2-hydroxy-ethyl)-4-methoxy-benzamide] | 2.5 nM | 2 nM | 90% |
| COc1ccc(C(=O)NCCF)cc1C(=O)c1ccc(Nc2c(F)cccc2F)cc1Cl [Compound 174] | 3.2 nM | 2 nM | 64% |
| COc1ccc(C(=O)NCCCO)cc1C(=O)c1ccc(Nc2c(F)cccc2F)cc1Cl [Compound 176, 3-[2-Chloro-4-(2,6-difluoro-phenylamino)-benzoyl]-N-(3-hydroxy-propyl)-4-methoxy-benzamide] | 3.2 nM | 2 nM | 52% |
| COc1ccc(C(=O)NC(C)(C)CO)cc1C(=O)c1ccc(Nc2c(F)cccc2F)cc1Cl [Compound 178, 3-[2-Chloro-4-(2,6-difluoro-phenylamino)-benzoyl]-N-(2-hydroxy-1,1-dimethyl-ethyl)-4-methoxy-benzamide] | 6.3 nM | 1.6 nM | 67% |
| Cc1ccc(C(=O)NCCO)cc1C(=O)c1ccc(Nc2cccc(F)c2C)cc1Cl [Compound 186, 3-[2-Chloro-4-(3-fluoro-2-methyl-phenylamino)-benzoyl]-N-(2-hydroxy-ethyl)-4-methyl-benzamide] | 0.8 nM | 0.5 nM | 92% |
| Cc1ccc(C(=O)NCCO)cc1C(=O)c1ccc(Nc2ccc(F)cc2Cl)cc1Cl [Compound 188, 3-[2-Chloro-4-(2-chloro-4-fluoro-phenylamino)-benzoyl]-N-(2-hydroxy-ethyl)-4-methyl-benzamide] | 0.9 nM | 0.5 nM | 95% |
| COc1ccc(C(=O)NCC(F)F)cc1C(=O)c1ccc(Nc2ccc(F)cc2)cc1Cl [Compound 196, 3-[2-Chloro-4-(4-fluoro-phenylamino)-benzoyl]-N-(2,2-difluoro-ethyl)-4-methoxy-benzamide] | 3.2 nM | 1 nM | 66% |
| COc1ccc(C(=O)NCC(O)CO)cc1C(=O)c1ccc(Nc2ccc(F)cc2)cc1Cl (stereo not drawn) [Compound 198, 3-[2-Chloro-4-(4-fluoro-phenylamino)-benzoyl]-N-(2,3-dihydroxy-propyl)-4-methoxy-benzamide] | 1.1 nM | 0.4 nM | 76% |
| COc1ccc(C(=O)NCC(O)CO)cc1C(=O)c1ccc(Nc2ccccc2)cc1Cl (stereo not drawn) [Compound 202, 3-(2-Chloro-4-phenylamino-benzoyl)-N-(2,3-dihydroxy-propyl)-4-methoxy-benzamide] | 5 nM | 2 nM | 67% |
| CSCCC(=O)Nc1ccc(C)c(C(=O)c2ccc(Nc3ccc(F)cc3F)cc2Cl)c1 [Compound 251, N-{3-[2-Chloro-4-(2,4-difluoro-phenylamino)-benzoyl]-4-methyl-phenyl}-3-methylsulfanyl-propionamide] | 1.1 nM | 0.4 nM | 49% |
| Cc1ccc(NC(=O)NCCO)cc1C(=O)c1ccc(Nc2ccc(F)cc2F)cc1Cl [Compound 260, 1-{3-[2-Chloro-4-(2,4-difluoro-phenylamino)-benzoyl]-4-methyl-phenyl}-3-(2-hydroxy-ethyl)-urea] | 1.8 nM | 0.5 nM | 95% |
| CCCNC(=O)Nc1ccc(C)c(C(=O)c2ccc(Nc3ccc(F)cc3F)cc2Cl)c1 [Compound 264, 1-{3-[2-Chloro-4-(2,4-difluoro-phenylamino)-benzoyl]-4-methyl-phenyl}-3-propyl-urea] | 1 nM | 0.3 nM | 87% |
| Cc1ccc(NC(=O)NC2CCCCC2)cc1C(=O)c1ccc(Nc2ccc(F)cc2F)cc1Cl [Compound 266, 1-{3-[2-Chloro-4-(2,4-difluoro-phenylamino)-benzoyl]-4-methyl-phenyl}-3-cyclohexyl-urea] | 0.9 nM | 0.4 nM | 54% |
| C=CCOC(=O)Nc1ccc(C)c(C(=O)c2ccc(Nc3ccc(F)cc3F)cc2Cl)c1 [Compound 278, {3-[2-Chloro-4-(2,4-difluoro-phenylamino)-benzoyl]-4-methyl-phenyl}-carbamic acid allyl ester] | 1.3 nM | 0.6 nM | 65% |

Source: patent US7977387B2, “Aminobenzophenone compounds” (Leo Pharma A/S, priority 2003, dated 2011)
